Data set [1] has as its system dog. The note with it: Subchronic oral toxicity in nonrodent, beagle, Gavage/Intubation, dose end: 14 week, group: systemic.
Data set [2] has as its system rat. The note with it: Other (NonGuideline or Guideline Not Listed); sprague dawley; Oral; Gavage/Intubation; dose end: 1 day; group: cannot be grouped; systemic / in life observation / clinical signs / salivation + systemic / in life observation / clinical signs / urogenital staining.
Data set [3] deals with rat. The settings on record: Subchronic oral toxicity in rodents, wistar, Feed, dose end: 98 day, group: systemic.
Data set [4] has as its system rat. The settings on record: Prenatal developmental toxicity study; sprague dawley; Oral; Gavage/Intubation; dose end: 17 GD; group: maternal; systemic / in life observation / body weight / body weight gain.
In data set [5] the test system is rabbit. The settings on record: Prenatal developmental toxicity study, new zealand white, Oral, Gavage/Intubation, dose end: 19 GD.
For data set [6], the system named is dog. The note with it: Sub-acute repeat dose toxicity; beagle; Oral; Gavage/Intubation; dose end: 4 week; group: systemic; systemic / hematology / blood clotting / blood clotting - prothrombin time + systemic / hematology / blood clotting / blood clotting - ….
Data set [7] has as its system rat. The note with it: Fertility (Segment I); sprague dawley; Oral; Gavage/Intubation; dose end: 7 GD; group: parental; systemic / in life observation / food consumption / food consumption + systemic / organ weight / uterus / nos.
In data set [8] the test system is dog. The note with it: Subchronic oral toxicity in nonrodent, beagle, Gavage/Intubation, dose end: 3 month, group: systemic, systemic / hematology / blood clotting / blood clotting - activated partial thromboplastin time + systemic / hematology / blood clotting / ….
The test system of data set [9] is rat. The note with it: Chronic toxicity, sprague dawley, Oral, Gavage/Intubation, dose end: 6 month, group: systemic.
In data set [10] the test system is rat. The note with it: Sub-acute repeat dose toxicity; sprague dawley; Oral; Gavage/Intubation; dose end: 4 week; group: systemic; systemic / hematology / blood clotting / blood clotting - activated partial thromboplastin time + systemic / hematology / blood clotting / ….
In data set [11] the test system is rat. The note with it: Prenatal developmental toxicity study, sprague dawley, Oral, Gavage/Intubation, dose end: 17 GD.
Data set [12] relates to rabbit. The settings on record: Prenatal developmental toxicity study, new zealand white, Oral, Gavage/Intubation, dose end: 19 GD. The source holds these as a separate data set.
[13] abbreviates: systemic / clinical chemistry / chloride / chloride + systemic / clinical chemistry / phosphorus / phosphorus + systemic / clinical ….
Setting [14] is: systemic / clinical chemistry / phosphorus / phosphorus + systemic / pathology microscopic / bone / [other].
The mark [15] stands for this setting: systemic / in life observation / body weight / body weight gain + systemic / in life observation / clinical signs / wetness + systemic / ….
Setting [16] is: group: developmental, systemic / in life observation / body weight / fetal weight.
The mark [17] stands for this setting: group: maternal, systemic / in life observation / body weight / body weight gain + systemic / in life observation / food consumption / food consumption.
The mark [18] stands for this setting: group: maternal, systemic / in life observation / body weight / body weight gain + systemic / in life observation / food consumption / food consumption + ….
[19] abbreviates: systemic / hematology / blood clotting / blood clotting - activated partial thromboplastin time + systemic / hematology / blood clotting / ….
The mark [20] stands for this setting: systemic / in life observation / body weight / body weight gain + systemic / organ weight / pituitary gland / relative to body weight + ….
The mark [21] stands for this setting: group: developmental, developmental / developmental malformation / bone / supernumerary.
Where [22] appears, read: group: developmental, developmental / developmental malformation / general / [other] + systemic / in life observation / body weight / fetal weight.
Setting [23] is: group: maternal, systemic / in life observation / body weight / body weight gain + systemic / in life observation / clinical signs / alopecia + systemic / in….

Where only a bound is given, the exact number is not on record here.

For `Cc1ncc([C@@H](CCCCCCc2ccc3c(n2)NCCC3)CC(=O)O)cn1`, in the data set on dog [1] (setting [13]), the lowest-observed-adverse-effect level (LOAEL) was above 45 mg/kg/day and the no-observed-adverse-effect level (NOAEL) is at least 45 mg/kg/day. For the same compound, in the data set on dog [1] (setting [14]), the LEL was 5 mg/kg/day and the NEL was below 5 mg/kg/day. Also, in the data set with rat [2], the LEL turned out to be 2000 mg/kg/day, the LOAEL was above 2000 mg/kg/day, the NEL was below 2000 mg/kg/day and the NOAEL was at least 2000 mg/kg/day.
For `Oc1cc(Cl)c(Cl)cc1Cl` [2,4,5-Trichlorophenol], in the data set on rat [3] (setting [15]), the LOAEL was above 1000 mg/kg/day, the NEL turned out to be 100 mg/kg/day and the NOAEL is at least 1000 mg/kg/day. In addition, in the data set on rat [3] (systemic / in life observation / clinical signs / wetness + systemic / pathology microscopic / kidney / degeneration + systemic / pathology …), the LEL was determined as 300 mg/kg/day.
In the case of `O=C([O-])c1ccc2c(c1)nc(C(=O)NC1CCN(C3CC3)CC1)n2Cc1cc(-c2ccc(Cl)s2)on1.[Na+]` [AVE3247], the LEL in the data set on rat [4] is 2000 mg/kg/day; in the data set with rabbit [5] (setting [16]), 2000 mg/kg/day; in the data set with rabbit [5] (setting [17]), 500 mg/kg/day; with dog [6], 10 mg/kg/day; in the data set with rat [7], 2000 mg/kg/day; in the data set with dog [8] it was 10 mg/kg/day. In addition, the LEL was found to be 200 mg/kg/day in the data set on rat [9] (setting [19]); 200 mg/kg/day in the data set on rat [10]; 500 mg/kg/day in the data set on rat [11] (setting [21]); 2000 mg/kg/day in the data set with rat [11] (setting [17]); 2000 mg/kg/day in the data set on rabbit [12] (setting [22]); 500 mg/kg/day in the data set with rabbit [12] (setting [23]). Also, the LOAEL was above 2000 mg/kg/day in the data set with rat [4]; 2000 mg/kg/day in the data set with rabbit [5] (setting [16]); 500 mg/kg/day in the data set with rabbit [5] (setting [17]); above 100 mg/kg/day in the data set on dog [6]; above 2000 mg/kg/day in the data set on rat [7]; above 80 mg/kg/day with dog [8]. Moreover, the LOAEL was 2000 mg/kg/day in the data set with rat [9] (setting [20]); above 2000 mg/kg/day in the data set on rat [10]; 500 mg/kg/day in the data set on rat [11] (setting [21]); 2000 mg/kg/day in the data set on rat [11] (setting [17]); above 2000 mg/kg/day in the data set on rabbit [12] (setting [22]); 1000 mg/kg/day with rabbit [12] (setting [23]). The NEL in the data set with rat [4] is 1000 mg/kg/day; in the data set on rabbit [5] (setting [16]), 500 mg/kg/day; in the data set on rabbit [5] (setting [18]), 200 mg/kg/day; in the data set with dog [6] it was below 10 mg/kg/day; in the data set on rat [7] it was 500 mg/kg/day; with dog [8] it was below 10 mg/kg/day. Also, the NEL was below 200 mg/kg/day in the data set with rat [9] (setting [19]); below 200 mg/kg/day with rat [10]; 200 mg/kg/day with rat [11] (setting [21]); 500 mg/kg/day in the data set on rat [11] (setting [17]); 1000 mg/kg/day in the data set on rabbit [12] (setting [22]); below 500 mg/kg/day in the data set on rabbit [12] (setting [23]). Besides, the NOAEL was at least 2000 mg/kg/day in the data set on rat [4]; 500 mg/kg/day with rabbit [5] (setting [16]); 200 mg/kg/day in the data set on rabbit [5] (setting [18]); at least 100 mg/kg/day with dog [6]; at least 2000 mg/kg/day with rat [7]; at least 80 mg/kg/day with dog [8]. The NOAEL in the data set on rat [9] (setting [20]) is 500 mg/kg/day; in the data set with rat [10] it was at least 2000 mg/kg/day; in the data set on rat [11] (setting [21]), 200 mg/kg/day; with rat [11] (setting [17]), 500 mg/kg/day; with rabbit [12] (setting [22]) it was at least 2000 mg/kg/day; in the data set with rabbit [12] (setting [23]), 500 mg/kg/day.
